What was measured:
Type in all cases: biochemical
[1] = target: PDE1A (Homo sapiens, UniProt P54750); assay: PDE1 inhibition assay (PDE1A), SPA with tritium labelled cAMP; conditions: 15 nM tritium labelled cAMP, 1 hr at room temperature, SPA beads
[2] = target: PDE1C (Homo sapiens, UniProt Q14123); assay: PDE1 inhibition assay (PDE1C), SPA with tritium labelled cAMP; conditions: 15 nM tritium labelled cAMP, 1 hr at room temperature, SPA beads
[3] = target: PDE1B (Homo sapiens, UniProt Q01064); assay: PDE1 inhibition assay (PDE1B), SPA with tritium labelled cAMP; conditions: 15 nM tritium labelled cAMP, 1 hr at room temperature, SPA beads; read-out: PDE1B, IC50
Method: Reactions were initiated by addition of the cyclic nucleotide substrate, and reactions were allowed to proceed for 1 hr at room temperature before being terminated through mixing with 20 μL (0.2 mg) yttrium silicate SPA beads (PerkinElmer).

Chain of PDE1B (Q01064 whole entry): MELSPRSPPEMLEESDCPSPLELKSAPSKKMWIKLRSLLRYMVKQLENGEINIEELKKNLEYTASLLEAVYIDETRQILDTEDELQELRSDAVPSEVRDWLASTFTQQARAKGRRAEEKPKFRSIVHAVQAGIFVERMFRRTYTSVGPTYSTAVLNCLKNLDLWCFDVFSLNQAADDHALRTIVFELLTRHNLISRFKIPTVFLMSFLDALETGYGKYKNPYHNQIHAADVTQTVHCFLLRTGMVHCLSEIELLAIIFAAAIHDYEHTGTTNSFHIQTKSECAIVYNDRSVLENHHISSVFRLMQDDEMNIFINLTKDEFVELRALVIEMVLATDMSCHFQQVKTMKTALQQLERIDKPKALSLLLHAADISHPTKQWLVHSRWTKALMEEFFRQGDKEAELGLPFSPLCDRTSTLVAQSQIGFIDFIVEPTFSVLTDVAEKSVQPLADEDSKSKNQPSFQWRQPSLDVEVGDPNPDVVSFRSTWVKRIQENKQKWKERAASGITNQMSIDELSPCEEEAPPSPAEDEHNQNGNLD
Chain of PDE1C (Q14123 whole entry): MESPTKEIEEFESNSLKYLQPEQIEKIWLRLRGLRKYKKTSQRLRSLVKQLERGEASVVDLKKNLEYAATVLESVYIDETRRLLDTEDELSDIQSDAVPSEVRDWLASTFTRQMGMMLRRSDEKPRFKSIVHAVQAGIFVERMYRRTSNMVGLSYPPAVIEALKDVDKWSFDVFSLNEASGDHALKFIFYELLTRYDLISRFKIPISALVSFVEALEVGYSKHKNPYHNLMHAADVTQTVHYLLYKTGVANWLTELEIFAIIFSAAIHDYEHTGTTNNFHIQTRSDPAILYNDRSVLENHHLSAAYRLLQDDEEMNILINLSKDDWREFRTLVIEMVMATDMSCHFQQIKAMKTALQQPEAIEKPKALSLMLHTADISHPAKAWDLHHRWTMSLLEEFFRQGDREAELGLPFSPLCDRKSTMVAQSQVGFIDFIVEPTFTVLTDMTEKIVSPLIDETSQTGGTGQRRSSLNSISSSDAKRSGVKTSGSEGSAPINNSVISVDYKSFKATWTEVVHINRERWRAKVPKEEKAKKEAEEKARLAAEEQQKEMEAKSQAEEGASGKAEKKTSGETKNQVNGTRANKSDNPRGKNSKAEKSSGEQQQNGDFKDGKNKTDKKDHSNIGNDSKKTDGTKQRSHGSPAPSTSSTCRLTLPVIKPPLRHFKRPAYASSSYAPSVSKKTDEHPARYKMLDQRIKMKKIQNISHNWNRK
Chain of PDE1A (P54750 whole entry): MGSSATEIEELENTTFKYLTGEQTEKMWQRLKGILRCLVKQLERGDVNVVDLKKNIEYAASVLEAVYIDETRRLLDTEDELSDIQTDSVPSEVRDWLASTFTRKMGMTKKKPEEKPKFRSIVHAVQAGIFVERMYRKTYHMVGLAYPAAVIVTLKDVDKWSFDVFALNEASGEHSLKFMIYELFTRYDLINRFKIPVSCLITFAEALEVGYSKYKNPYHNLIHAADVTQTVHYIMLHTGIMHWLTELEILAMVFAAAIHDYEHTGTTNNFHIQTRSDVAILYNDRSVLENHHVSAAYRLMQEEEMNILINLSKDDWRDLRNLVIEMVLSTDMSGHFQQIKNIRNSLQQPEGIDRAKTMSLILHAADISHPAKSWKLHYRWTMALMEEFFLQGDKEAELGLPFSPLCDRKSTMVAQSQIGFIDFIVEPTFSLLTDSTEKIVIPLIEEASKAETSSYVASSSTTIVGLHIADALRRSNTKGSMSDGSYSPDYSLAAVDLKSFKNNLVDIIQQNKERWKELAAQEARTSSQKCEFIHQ

## Cc1nc(C(C)C)c2c(NCc3ncn(C)n3)cc(-c3cccc4ncoc34)nn12 [Example 81, 2-(1,3-benzoxazol-7-yl)-5-isopropyl-7-methyl-N-[(1-methyl-1,2,4-triazol-3-yl)methyl]imidazo[1,5-b]pyridazin-4-amine]
[1]
  IC50: 3.8 nM
[2]
  IC50: 2.5 nM
[3]
  IC50: 0.29 nM

From patent US10351561B2, “Pyrazolo[3,4-b]pyridines and imidazo[1,5-b]pyridazines as PDE1 inhibitors” (H. Lundbeck A/S, priority 2016, dated 2019)
